Test results from PubChem BioAssay AID330 (DTP/NCI, 2004).
Several values for one entry are separate records, joined by “and”; a condition that tells them apart may be missing. Equal entries are not always repeated. Inconclusive results and toxic doses are left out. The calls were made as follows: active = survival T/C of 150% or more; inactive = T/C below 125% in these data.

Tested on: P388 leukemia ip, CD2F1 mice, survival T/C
Test: NCI In Vivo Anticancer Drug Screen. Data for tumor model P388 Leukemia (intraperitoneal) in CD2F1 (CDF1) mice
Details: endpoint: median survival time, higher = longer survival
How it was run: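 Mice carrying the transplanted tumor received test compound or vehicle. Survival was recorded in each group, and the value is the treated-group measurement divided by that of the vehicle-treated control group.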

[1] = dose: 60.0 mg/kg/injection, schedule: Q01DX005 (ip), vehicle: saline with Tween-80
[2] = dose: 12.5 mg/kg/injection, schedule: Q01DX005 (ip), vehicle: Klucel (hydroxypropylcellulose) (HPC)
[3] = dose: 25.0 mg/kg/injection, schedule: Q01DX005 (ip), vehicle: Klucel (hydroxypropylcellulose) (HPC)
[4] = dose: 50.0 mg/kg/injection, schedule: Q01DX005 (ip), vehicle: Klucel (hydroxypropylcellulose) (HPC)
[5] = dose: 100.0 mg/kg/injection, schedule: Q01DX005 (ip), vehicle: Klucel (hydroxypropylcellulose) (HPC)
[6] = dose: 200.0 mg/kg/injection, schedule: Q01DX005 (ip), vehicle: Klucel (hydroxypropylcellulose) (HPC)
[7] = dose: 25.0 mg/kg/injection, schedule: Q01DX009 (ip), vehicle: saline
[8] = dose: 50.0 mg/kg/injection, schedule: Q01DX009 (ip), vehicle: saline
[9] = dose: 100.0 mg/kg/injection, schedule: Q01DX009 (ip), vehicle: saline
[10] = dose: 25.0 mg/kg/injection, schedule: Q01DX009 (ip), vehicle: saline with Tween-80
[11] = dose: 50.0 mg/kg/injection, schedule: Q01DX009 (ip), vehicle: saline with Tween-80
[12] = dose: 100.0 mg/kg/injection, schedule: Q01DX009 (ip), vehicle: saline with Tween-80
[13] = dose: 50.0 mg/kg/injection, schedule: Q01DX005 (ip), vehicle: saline with Tween-80
[14] = dose: 200.0 mg/kg/injection, schedule: Q01DX009 (ip), vehicle: saline with Tween-80
[15] = dose: 12.5 mg/kg/injection, schedule: Q01DX009 (ip), vehicle: saline

Measured: T/C

CC(=O)Oc1ccc([N+](=O)[O-])cc1[N+](=O)[O-]
inactive: dose: 6.25 mg/kg/injection, schedule: Q04DX002 (ip), vehicle: Klucel (hydroxypropylcellulose) (HPC) 97 % of control | dose: 12.5 mg/kg/injection, schedule: Q04DX002 (ip), vehicle: Klucel (hydroxypropylcellulose) (HPC) 103 % of control | dose: 25.0 mg/kg/injection, schedule: Q04DX002 (ip), vehicle: Klucel (hydroxypropylcellulose) (HPC) 100 % of control

O=C1N=NC2NC=CN3C=CC=C1C23 (configuration not stated)
inactive: [1] 102 % of control | dose: 120.0 mg/kg/injection, schedule: Q01DX005 (ip), vehicle: saline with Tween-80 107 % of control | dose: 240.0 mg/kg/injection, schedule: Q01DX005 (ip), vehicle: saline with Tween-80 110 % of control

CC(C)c1ccc(/C(O)=C/C(=O)C(=O)/C=C(/O)c2ccc(C(C)C)cc2)cc1
inactive: dose: 100.0 mg/kg/injection, schedule: Q04DX002 (ip), vehicle: saline 100 % of control | dose: 200.0 mg/kg/injection, schedule: Q04DX002 (ip), vehicle: saline 100 % of control | dose: 400.0 mg/kg/injection, schedule: Q04DX002 (ip), vehicle: saline 99 % of control

COC1CC2C=CC3C4OC2(/C(C)=C/C(C)C(C(C)O)OC1=O)C3C(O)C(C)C4OC(=O)c1ccc[nH]1 (configuration not stated)
inactive: [2] 104 % of control | [3] 99 % of control | [4] 95 % of control | [5] 99 % of control | [6] 98 % of control

CC1(C)C[C@H]2C=C(C=O)[C@]34C[C@]3(C(=O)OC4O)[C@H]2C1 (some centres not stated)
inactive: dose: 0.18 mg/kg/injection, schedule: Q01DX009 (ip), vehicle: Klucel (hydroxypropylcellulose) (HPC) 103 % of control | dose: 0.78 mg/kg/injection, schedule: Q01DX009 (ip), vehicle: Klucel (hydroxypropylcellulose) (HPC) 111 % of control and 120 % of control | dose: 1.56 mg/kg/injection, schedule: Q01DX009 (ip), vehicle: Klucel (hydroxypropylcellulose) (HPC) 106 % of control and 117 % of control

OCCN(CCO)CCCCCCN(CCO)CCO
inactive: [7] 98 % of control | [8] 104 % of control | [9] 107 % of control | dose: 200.0 mg/kg/injection, schedule: Q01DX009 (ip), vehicle: saline 113 % of control

O=C1ON=C(COc2ccccc2)/C1=C\c1ccc(Cl)cc1
inactive: dose: 15.0 mg/kg/injection, schedule: Q01DX005 (ip), vehicle: saline with Tween-80 105 % of control | dose: 30.0 mg/kg/injection, schedule: Q01DX005 (ip), vehicle: saline with Tween-80 101 % of control | [1] 104 % of control

CC(=O)N(Sc1ccccc1)c1ccccc1
inactive: [10] 110 % of control | [11] 106 % of control | [12] 103 % of control

CCCCC(=S)SSC(C)(C)C
inactive: dose: 12.5 mg/kg/injection, schedule: Q01DX005 (ip), vehicle: saline with Tween-80 108 % of control | dose: 25.0 mg/kg/injection, schedule: Q01DX005 (ip), vehicle: saline with Tween-80 115 % of control | [13] 100 % of control and 114 % of control

COc1ccc(-c2c(C)oc(C)c2C(C)=O)cc1OC
inactive: dose: 60.0 mg/kg/injection, schedule: Q01DX005 (ip), vehicle: Klucel (hydroxypropylcellulose) (HPC) 98 % of control | dose: 120.0 mg/kg/injection, schedule: Q01DX005 (ip), vehicle: Klucel (hydroxypropylcellulose) (HPC) 102 % of control | dose: 240.0 mg/kg/injection, schedule: Q01DX005 (ip), vehicle: Klucel (hydroxypropylcellulose) (HPC) 101 % of control

CC[CH2][Sn]([CH2]CC)([CH2]CC)[CH2]CCBr
inactive: [11] 106 % of control | [12] 100 % of control

CCC(c1ccccc1)c1noc(CCN(CC)CC)n1 (configuration not stated)
inactive: dose: 50.0 mg/kg/injection, schedule: Q01DX009 (ip), vehicle: Klucel (hydroxypropylcellulose) (HPC) 101 % of control | dose: 100.0 mg/kg/injection, schedule: Q01DX009 (ip), vehicle: Klucel (hydroxypropylcellulose) (HPC) 99 % of control | dose: 200.0 mg/kg/injection, schedule: Q01DX009 (ip), vehicle: Klucel (hydroxypropylcellulose) (HPC) 113 % of control

BrCC1CN=C(c2ccccc2)O1 (configuration not stated)
inactive: dose: 60.0 mg/kg/injection, schedule: Q01DX005 (ip), vehicle: saline 104 % of control | dose: 120.0 mg/kg/injection, schedule: Q01DX005 (ip), vehicle: saline 101 % of control | dose: 240.0 mg/kg/injection, schedule: Q01DX005 (ip), vehicle: saline 101 % of control

NC=O
inactive: [12] 109 % of control | dose: 100.0 mg/kg/injection, schedule: Q04DX003 (ip), vehicle: saline 100 % of control | [14] 118 % of control | dose: 200.0 mg/kg/injection, schedule: Q04DX003 (ip), vehicle: saline 100 % of control | dose: 400.0 mg/kg/injection, schedule: Q01DX009 (ip), vehicle: saline with Tween-80 118 % of control | dose: 400.0 mg/kg/injection, schedule: Q04DX003 (ip), vehicle: saline 118 % of control

CC1CC(C)NC(C)C1 (configuration not stated)
inactive: [15] 86 % of control | [7] 103 % of control | [8] 97 % of control | [9] 93 % of control

Cc1cc(O)c(C(c2ccc(C#N)cc2)c2c(O)cc(C)[nH]c2=O)c(=O)[nH]1
inactive: [11] 95 % of control | [12] 94 % of control | [14] 98 % of control

COc1cc(N(CCCl)CCCl)ccc1/C=N\NC(=O)c1cccnc1
inactive: dose: 25.0 mg/kg/injection, schedule: Q01DX007 (ip), vehicle: Klucel (hydroxypropylcellulose) (HPC) 95 % of control | dose: 50.0 mg/kg/injection, schedule: Q01DX007 (ip), vehicle: Klucel (hydroxypropylcellulose) (HPC) 108 % of control | dose: 100.0 mg/kg/injection, schedule: Q01DX007 (ip), vehicle: Klucel (hydroxypropylcellulose) (HPC) 100 % of control | dose: 200.0 mg/kg/injection, schedule: Q01DX007 (ip), vehicle: Klucel (hydroxypropylcellulose) (HPC) 101 % of control

CCCCCCCCCCC[N+]1([O-])CCOCC1
inactive: [15] 101 % of control | [7] 99 % of control | [8] 99 % of control and 89 % of control

C=C(Cl)C(=NC(C)(C)C)Nc1ccc(Cl)cc1
inactive: dose: 6.25 mg/kg/injection, schedule: Q01DX005 (ip), vehicle: Klucel (hydroxypropylcellulose) (HPC) 114 % of control | [2] 117 % of control | [3] 112 % of control | [4] 110 % of control | [5] 115 % of control

COC(=O)/C=C1\CC(C)C2=C(N1)SCC2=O (configuration not stated)
inactive: [4] 105 % of control | [5] 105 % of control | [6] 100 % of control

COc1cc2c(cc1OC)C1C(C(=O)O)c3ccc(OC)c(OC)c3C(=O)N1CC2 (configuration not stated)
inactive: dose: 50.0 mg/kg/injection, schedule: Q04DX003 (ip), vehicle: distilled water + Tween-80 100 % of control | dose: 100.0 mg/kg/injection, schedule: Q04DX003 (ip), vehicle: distilled water + Tween-80 101 % of control | dose: 200.0 mg/kg/injection, schedule: Q04DX003 (ip), vehicle: distilled water + Tween-80 103 % of control | dose: 400.0 mg/kg/injection, schedule: Q04DX003 (ip), vehicle: distilled water + Tween-80 89 % of control

Cc1cccc(Nc2c(N)nc(N)nc2N)c1
inactive: [10] 100 % of control | dose: 25.0 mg/kg/injection, schedule: Q04DX003 (ip), vehicle: saline with Tween-80 100 % of control | [11] 109 % of control | dose: 50.0 mg/kg/injection, schedule: Q04DX003 (ip), vehicle: saline with Tween-80 100 % of control | dose: 100.0 mg/kg/injection, schedule: Q04DX003 (ip), vehicle: saline with Tween-80 104 % of control and 118 % of control

Nc1nc(N)nc(-c2cccs2)n1
inactive: [10] 92 % of control | [11] 101 % of control | dose: 50.0 mg/kg/injection, schedule: Q04DX002 (ip), vehicle: saline with Tween-80 92 % of control | [12] 100 % of control | dose: 100.0 mg/kg/injection, schedule: Q04DX002 (ip), vehicle: saline with Tween-80 90 % of control | dose: 200.0 mg/kg/injection, schedule: Q04DX002 (ip), vehicle: saline with Tween-80 106 % of control

CC(NNC(=S)N1CCN(c2ccccn2)CC1)c1cccc[n+]1[O-] (configuration not stated)
inactive: [13] 103 % of control | dose: 100.0 mg/kg/injection, schedule: Q01DX005 (ip), vehicle: saline with Tween-80 100 % of control | dose: 200.0 mg/kg/injection, schedule: Q01DX005 (ip), vehicle: saline with Tween-80 91 % of control
